Where two headings read alike, the source gives them in different places.
Columns and labels:
MEF-IGF1R cells = assay: Proliferation/viability of MEF-IGF1R (Thymidine [14C] incorporation); format: cell-based; settings: rhIGF1 100 ng/mL, incubation 72 hours, read-out: Test C IC50
Protocol: C) Measurement of the Proliferation/Viability of MEF-IGF1R
Cell culture: the MEF-IGF1R cells (stable clone of cells transfected with the receptor hIGF-1R) are cultured at 37° C. under 5% CO2 in EMEM medium containing 10% FCS.
Test procedure: the cells are seeded at 5000 cells per well in 96-well Cytostar plates (Amersham) with 0.2 mL of EMEM culture medium at 37° C. for 18 hours. The cells are then washed twice with EMEM medium and left to culture without serum for 24 hours. The compounds are then added at various concentrations in the presence of rhIGF1 (100 ng/mL) and 0.1 μCi of Thymidine [^14C] (specific activity ˜50 mCi/mmol) to give 0.2 mL of volume per well. After incubation for 72 hours in the presence of the compound, at 37° C. under 5% CO2, the incorporation of Thymidine [^14C] is measured by counting the radioactivity on a Microbeta trilux counter (Perkin-Elmer). The IC50 is determined from 10 increasing concentrations of the compound.
(§1) (i) The tests are performed in duplicate and the mean of the two tests is calculated.
(§2) (ii) The value of the signal of the maximum response is calculated from the positive control: cells stimulated with IGF1 without compound.
(§3) (iii) Value of the signal of the minimum response is calculated from the negative control: cells not stimulated with IGF1 without compound.
(§4) (iv) By using these values as maximum (100%) and minimum (0%), respectively, the data were normalized so as to give a percentage of the maximum response.
(§5) (v) A curve of dose response is plotted and the IC50 (the concentration of which the compound induces a 50% decrease in the signal) of the compound is calculated by non-linear regression analysis.

IGF-1R in MCF7 cells = IGF-1R in MCF7 cells (Homo sapiens, UniProt P08069); assay: Autophosphorylation of IGF-1R in MCF7 cells after stimulation with IGF-1 (ELISA); format: cell-based; design: endogenous in cells; host or cells: MCF-7 cells; settings: MCF-7 cells, compound added one hour before stimulation with IGF1; read-out: Test B IC50
IGF-1R in MCF7 cells, sequence (P08069 31-1367): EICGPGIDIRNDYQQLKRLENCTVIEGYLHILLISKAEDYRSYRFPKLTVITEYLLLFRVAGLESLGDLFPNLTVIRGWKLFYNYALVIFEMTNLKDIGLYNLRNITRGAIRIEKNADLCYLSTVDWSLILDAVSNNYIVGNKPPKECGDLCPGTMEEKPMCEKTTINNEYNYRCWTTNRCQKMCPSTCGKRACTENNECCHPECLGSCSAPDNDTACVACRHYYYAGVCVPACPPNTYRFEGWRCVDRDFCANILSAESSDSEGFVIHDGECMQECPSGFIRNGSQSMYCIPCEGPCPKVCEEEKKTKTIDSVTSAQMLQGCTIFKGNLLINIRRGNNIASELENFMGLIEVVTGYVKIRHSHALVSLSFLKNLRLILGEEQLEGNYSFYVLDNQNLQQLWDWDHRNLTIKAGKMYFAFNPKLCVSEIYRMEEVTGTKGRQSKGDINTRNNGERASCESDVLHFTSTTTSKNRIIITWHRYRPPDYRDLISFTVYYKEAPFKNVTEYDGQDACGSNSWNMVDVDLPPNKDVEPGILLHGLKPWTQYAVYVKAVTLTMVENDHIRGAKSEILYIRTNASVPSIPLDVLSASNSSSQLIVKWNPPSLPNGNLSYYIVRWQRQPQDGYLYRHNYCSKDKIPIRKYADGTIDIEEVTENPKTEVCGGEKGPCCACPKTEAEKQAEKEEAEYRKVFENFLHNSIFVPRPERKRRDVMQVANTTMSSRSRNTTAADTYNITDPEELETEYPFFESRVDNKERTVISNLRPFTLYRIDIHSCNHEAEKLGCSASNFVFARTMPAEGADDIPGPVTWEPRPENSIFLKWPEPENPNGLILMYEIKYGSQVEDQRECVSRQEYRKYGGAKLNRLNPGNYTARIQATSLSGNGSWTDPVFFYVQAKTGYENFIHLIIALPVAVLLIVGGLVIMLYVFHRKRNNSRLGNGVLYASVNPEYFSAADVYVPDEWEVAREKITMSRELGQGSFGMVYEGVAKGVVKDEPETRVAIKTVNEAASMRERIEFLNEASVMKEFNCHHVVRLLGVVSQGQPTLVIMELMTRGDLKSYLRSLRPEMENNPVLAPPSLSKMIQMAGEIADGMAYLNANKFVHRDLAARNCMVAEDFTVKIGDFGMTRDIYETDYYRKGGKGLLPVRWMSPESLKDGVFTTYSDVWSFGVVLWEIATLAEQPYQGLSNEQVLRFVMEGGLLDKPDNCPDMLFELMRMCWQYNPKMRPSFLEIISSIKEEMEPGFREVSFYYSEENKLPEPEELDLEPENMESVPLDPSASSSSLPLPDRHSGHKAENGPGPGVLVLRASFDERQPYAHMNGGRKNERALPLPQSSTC
Protocol: B) Measurement of the Autophosphorylation of IGF-1R in MCF7 Cells after Stimulation with IGF-1
Cell Culturing and Execution of the Test:
The autophosphorylation of IGF1R in the IGF1-induced cells is evaluated by means of an ELISA technique (Enzyme Linked ImmunoSorbent Assay). The MCF-7 are seeded at 60 000 cells per well in 6-well plates and incubated at 37° C., 5% CO2 in medium containing 10% serum. After one night in 10% serum, the cells are deprived of serum for 24 hours. The compounds are added to the medium one hour before stimulation with IGF1. After 10 minutes of stimulation with IGF1, the cells are lysed with a buffer (Hepes 50 mM pH 7.6, Triton X100 1%, orthovanadate 2 mM, protease inhibitor cocktail). The cell lysates are incubated on a 96-well plate precoated with an anti-IGF1R antibody, followed by incubation with an anti-phosphotyrosine antibody coupled to the enzyme peroxidase. The level of peroxidase activity (measured by OD with a luminescent substrate) reflects the phosphorylation status of the receptor.
as §1, §2, §3, §4, §5

[1] = target: T1, human cytoplasmic domain of IGF-1R (Homo sapiens, UniProt P08069); assay: Kinase IGF-1R test: inhibition of autophosphorylation of the enzyme (HTRF); format: biochemical; settings: ATP 120 μM
T1 construct: The human cytoplasmic domain of IGF-1R was cloned by fusion with glutathione S-transferase (GST); made in house; host or cells: SF21 insect cells (baculovirus, pFastBac-GST)
T1 sequence (P08069 960-1367 limits assumed): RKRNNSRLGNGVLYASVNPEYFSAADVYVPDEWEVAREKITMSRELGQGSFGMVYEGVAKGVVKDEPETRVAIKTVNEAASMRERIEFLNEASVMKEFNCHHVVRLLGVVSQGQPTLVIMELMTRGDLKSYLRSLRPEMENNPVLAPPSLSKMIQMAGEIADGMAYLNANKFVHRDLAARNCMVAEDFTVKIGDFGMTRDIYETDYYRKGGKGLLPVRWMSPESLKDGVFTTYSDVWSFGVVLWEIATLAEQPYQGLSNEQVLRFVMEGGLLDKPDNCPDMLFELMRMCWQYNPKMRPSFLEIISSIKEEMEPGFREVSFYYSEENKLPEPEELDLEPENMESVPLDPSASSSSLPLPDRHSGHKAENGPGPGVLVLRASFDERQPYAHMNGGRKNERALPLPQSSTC
Protocol: A) Experimental Protocol for the Kinase IGF-1R Test:
The inhibitory activity of the compounds on IGF1R is determined by measuring the inhibition of autophosphorylation of the enzyme using a time-resolved fluorescence test (HTRF). The human cytoplasmic domain of IGF-1R was cloned by fusion with glutathione S-transferase (GST) in the baculovirus expression vector pFastBac-GST. The protein is expressed in the SF21 cells and purified to about 80% homogeneity. For the enzymatic test, the test compound at 10 mM dissolved in DMSO is diluted in ⅓ steps in a 50 mM Hepes, pH 7.5, 5 mM MnCl2, 50 mM NaCl, 3% Glycerol, 0.025% Tween 20 buffer. To measure the inhibition, the successive dilutions of the compound are preincubated for 30 minutes and 90 minutes in the presence of 5 nM of enzyme, the final DMSO concentration not exceeding 1%. The enzymatic reaction is initiated to have a final ATP concentration of 120 μM, and is stopped after 5 minutes by addition of 100 mM Hepes, pH 7.0 buffer containing 0.4 M of potassium fluoride, 133 mM EDTA, 0.1% BSA, the XL665-labelled antibody anti-GST and the anti-phosphotyrosine antibody conjugated to europium cryptate Eu—K (Cis-Bio Int.). The characteristics of the two fluorophores, XL-665 and Eu—K, are available in G. Mathis et al., Anticancer Research, 1997, 17, pages 3011-3014. The energy transfer between the excited europium cryptate to the acceptor XL665 is proportional to the degree of autophosphorylation of IGF-1R. The specific long-lasting signal of XL-665 is measured in a GENios Pro TECAN plate counter. The inhibition of autophosphorylation of IGF-1R at time 30 minutes and 90 minutes with the test compounds of the invention is calculated relative to a 1% in DMSO control, whose activity is measured in the absence of compound. The curve representing the percentage of inhibition as a function of the log of the concentration is established to determine the concentration corresponding to 50% inhibition (IC50),

[2] = preincubation 30 minutes with 5 nM enzyme, read-out: Test A 30′ IC50
[3] = preincubation 90 minutes with 5 nM enzyme, read-out: Test A 90′ IC50

IC50 (IGF-1R in MCF7 cells) [nM] | IC50 [1, 2] [nM] | IC50 [1, 3] [nM] | SMILES | IC50 (MEF-IGF1R cells) [nM]
> 100 | > 100 | – | CC1(C)C(=O)N(c2ccc(SC(F)(F)F)cc2)C(=O)N1Cc1ccnc(NC(=O)c2cc(Cl)cc(Cl)c2)c1 [Example 6, 3,5-dichloro-N-{4-[(5,5-dimethyl-2,4-dioxo-3-{4-[(trifluoromethyl)thio]phenyl}imidazolidin-1-yl)methyl]pyridin-2-yl}benzamide] | < 10
> 100 | > 100 | 10 to 100 | Cc1ccc(F)c(C(=O)Nc2cc(CN3C(=O)N(c4ccc(SC(F)(F)F)cc4)C(=O)C3(C)C)ccn2)c1Cl [Example 7, 2-chloro-N-{4-[(5,5-dimethyl-2,4-dioxo-3-{4-[(tri-fluoromethyl)thio]phenyl}imidazolidin-1-yl)methyl]pyridin-2-yl}-6-fluoro-3-methylbenzamide] | 10 to 100
< 10 | 10 to 100 | < 10 | CN(C)C(=O)c1cccc(Nc2cc(CN3C(=O)N(c4ccc(SC(F)(F)F)cc4)C(=O)C3(C)C)ccn2)c1 [Example 8, 3-({4-[(5,5-dimethyl-2,4-dioxo-3-{4-[(trifluoro-methyl)thio]phenyl}imidazolidin-1-yl)methyl]pyridin-2-yl}amino)-N,N-dimethylbenzamide] | 10 to 100
> 100 | > 100 | 10 to 100 | C[C@H](CO)Nc1nccc(CN2C(=O)N(c3ccc(S(=O)(=O)C(F)(F)F)cc3)C(=O)C2(C)C)n1 [Example 9, 1-[(2-{[(1R)-2-hydroxy-1-methylethyl]amino}-pyrimidin-4-yl)methyl]-5,5-dimethyl-3-{4-[(trifluoromethyl)-sulfonyl]phenyl}imidazolidine-2,4-dione] | 10 to 100
< 10 | 10 to 100 | < 10 | CC1(C)C(=O)N(c2ccc(SC(F)(F)F)cc2)C(=O)N1Cc1ccnc(Nc2cccnc2)n1 [Example 11, 5,5-dimethyl-1-{[2-(pyridin-3-ylamino)pyrimidin-4-yl]methyl}-3-{4-[(trifluoromethyl)thio]phenyl}imidazolidine-2,4-dione] | < 10
> 100 | > 100 | > 100 | CC1(C)C(=O)N(c2ccc(SC(F)(F)F)cc2)C(=O)N1Cc1ccnc(Nc2cncnc2)c1 [Example 14, 5,5-dimethyl-1-{[2-(pyrimidin-5-ylamino)pyridin-4-yl]methyl}-3-{4-[(trifluoromethyl)thio]phenyl}imidazolidine-2,4-dione] | > 100
10 to 100 | 10 to 100 | 10 to 100 | CC1(C)C(=O)N(c2ccc(SC(F)(F)F)cc2)C(=O)N1Cc1ccnc(Nc2cncnc2)n1 [Example 15, 5,5-dimethyl-1-{[2-(pyrimidin-5-ylamino)pyrimidin-4-yl]methyl}-3-{4-[(trifluoromethyl)thio]phenyl}imidazolidine-2,4-dione] | > 100
10 to 100 | 10 to 100 | 10 to 100 | CC1(C)C(=O)N(c2ccc(S(=O)(=O)C(F)(F)F)cc2)C(=O)N1Cc1ccnc(Nc2cncnc2)n1 [Example 16, 5,5-dimethyl-1-{[2-(pyrimidin-5-ylamino)pyrimidin-4-yl]methyl}-3-{4-[(trifluoromethyl)sulfonyl]phenyl}imidazolidine-2,4-dione] | > 100
10 to 100 | 10 to 100 | 10 to 100 | CCOC(=O)Nc1cc(CN2C(=O)N(c3ccc(SC(F)(F)F)cc3)C(=O)C2(C)C)ccn1 [Example 18 Stage a), ethyl {4-[(5,5-dimethyl-2,4-dioxo-3-{4-[(trifluoromethyl)thio]phenyl}imidazolidin-1-yl)methyl]pyridin-2-yl}carbamate] | 10 to 100
10 to 100 | 10 to 100 | 10 to 100 | CC1(C)C(=O)N(c2ccc(SC(F)(F)F)cc2)C(=O)N1Cc1ccnc(NC(=O)NCCCN2CCCC2)c1 [Example 18, 1-{4-[(5,5-dimethyl-2,4-dioxo-3-{4-[(trifluoro-methyl)thio]phenyl}imidazolidin-1-yl)methyl]pyridin-2-yl}-3-(3-pyrrolidin-1-ylpropyl)urea] | > 100
< 10 | 10 to 100 | 10 to 100 | CC1(C)C(=O)N(c2ccc(SC(F)(F)F)cc2)C(=O)N1Cc1ccnc(NC(=O)NC2CCCC2)c1 [Example 19, 1-cyclopentyl-3-{4-[(5,5-dimethyl-2,4-dioxo-3-{4-[(trifluoromethyl)thio]phenyl}imidazolidin-1-yl)methyl]pyridin-2-yl}urea] | 10 to 100
> 100 | > 100 | > 100 | CC1(C)C(=O)N(c2ccc(SC(F)(F)F)cc2)C(=O)N1Cc1ccnc(NC(=O)NCCN2CCCC2)c1 [Example 20, 1-{4-[(5,5-dimethyl-2,4-dioxo-3-{4-[(trifluoro-methyl)thio]phenyl}imidazolidin-1-yl)methyl]pyridin-2-yl}-3-(2-pyrrolidin-1-ylethyl)urea] | > 100
10 to 100 | 10 to 100 | 10 to 100 | CC1(C)C(=O)N(c2ccc(SC(F)(F)F)cc2)C(=O)N1Cc1ccnc(NC(=O)NCCCCN2CCCC2)c1 [Example 21, 1-{4-[(5,5-dimethyl-2,4-dioxo-3-{4-[(trifluoro-methyl)thio]phenyl}imidazolidin-1-yl)methyl]pyridin-2-yl}-3-(4-pyrrolidin-1-ylbutyl)urea] | > 100
10 to 100 | 10 to 100 | 10 to 100 | CC1(C)C(=O)N(c2ccc(SC(F)(F)F)cc2)C(=O)N1Cc1ccnc(NC(=O)NC2CC2)c1 [Example 22, 1-cyclopropyl-3-{4-[(5,5-dimethyl-2,4-dioxo-3-{4-[(trifluoromethyl)thio]phenyl}imidazolidin-1-yl)methyl]pyridin-2-yl}urea] | 10 to 100
10 to 100 | 10 to 100 | 10 to 100 | CC1(C)C(=O)N(c2ccc(SC(F)(F)F)cc2)C(=O)N1Cc1ccnc(NC(=O)NC2CCC2)c1 [Example 23, 1-cyclobutyl-3-{4-[(5,5-dimethyl-2,4-dioxo-3-{4-[(trifluoromethyl)thio]phenyl}imidazolidin-1-yl)methyl]pyridin-2-yl}urea] | 10 to 100

Reference: patent publication US20090082329A1 (AVENTIS PHARMA S.A., priority 2006, published 2009)
